Laboratory results reported in US9175011B2, “Morpholino substituted urea or carbamate derivatives as MTOR inhibitors” (CELLZOME LIMITED, priority 2011, dated 2015).

What was measured:
[1] = target: T1, DNA-dependent protein kinase (DNA-PK) (Homo sapiens, UniProt P78527); assay: kinobeads assay, DNA-PK; assay type: binding; details: Jurkat cell lysate, read-out: Inhibition values (IC50) DNA-PK
T1 construct: Jurkat cells were homogenized in a Potter S homogenizer in lysis buffer; endogenous in cells; host or cells: Jurkat, clone E6-1 (ATCC TIB-152) lysate
Method: (§1) The compounds of the present invention as described were tested in the mTOR kinobeads assay as described below. Briefly, test compounds (at various concentrations) and the affinity matrix (1:1 mixture of beads with immobilized phenylthiazole ligand 1 and beads with immobilized phenylmorpholin-chromen ligand; WO 2009/098021) were added to cell lysate aliquots and allowed to bind to the proteins in the lysate sample. After the incubation time the beads with captured proteins were separated from the lysate. Bound proteins were then eluted and the presence of mTOR, PI3K alpha (PI3Kα), PI3K beta (PI3Kb), PI3K gamma (PI3Kg), PI3K delta (PI3Kd) and DNA-dependent protein kinase (DNA-PK) was detected and quantified using a specific antibody in a dot blot procedure and the Odyssey infrared detection system. Dose response curves for individual kinases were generated and IC50 values calculated. Kinobeads assays for PI3 kinases (WO-A 2008/015013) and for kinase selectivity profiling (WO 2009/098021) have been previously described.
(§2) The affinity matrix (beads with immobilized phenylmorpholin-chromen ligand) was washed three times with 15 ml of 1×DP buffer containing 0.2% NP40 (IGEPAL® CA-630, Sigma, #13021) and then resuspended in 5.5 ml of 1×DP buffer containing 0.2% NP40 (10% beads slurry).
(§3) 5×DP buffer: 250 mM Tris-HCl pH 7.4, 25% Glycerol, 7.5 mM MgCl2, 750 mM NaCl, 5 mM Na3VO4, filter the 5×-lysis buffer through 0.22 μm filter and store in aliquots at −80° C. The 5×DP buffer is diluted to 1×DP buffer containing 1 mM DTT and 25 mM NaF.
(§4) Stock solutions of test compounds were prepared in DMSO. In a 96 well plate 30 μl solution of diluted test compounds at 5 mM in DMSO were prepared. Starting with this solution a 1:3 dilution series (9 steps) was prepared. For control experiments (no test compound) a buffer containing 2% DMSO was used. Compound PI-103 served as a positive control (Calbiochem catalogue number 528100).
(§5) Jurkat cells (ATCC catalogue number TIB-152 Jurkat, clone E6-1) were grown in 1 liter Spinner flasks (Integra Biosciences, #182101) in suspension in RPMI 1640 medium (Invitrogen, #21875-034) supplemented with 10% Fetal Bovine Serum (Invitrogen) at a density between 0.15×10^6 and 1.2×10^6 cells/ml. Cells were harvested by centrifugation, washed once with 1×PBS buffer (Invitrogen, #14190-094) and cell pellets were frozen in liquid nitrogen and subsequently stored at −80° C.
(§6) Jurkat cells were homogenized in a Potter S homogenizer in lysis buffer: 50 mM Tris-HCl, 0.8% NP40, 5% glycerol, 150 mM NaCl, 1.5 mM MgCl2, 25 mM NaF, 1 mM sodium vanadate, 1 mM DTT, pH 7.5. One complete EDTA-free tablet (protease inhibitor cocktail, Roche Diagnostics, 1873580) per 25 ml buffer was added. The material was dounced 10 times using a mechanized POTTER S, transferred to 50 ml falcon tubes, incubated for 30 minutes on ice and spun down for 10 min at 20,000 g at 4° C. (10,000 rpm in Sorvall SLA600, precooled). The supernatant was transferred to an ultracentrifuge (UZ)-polycarbonate tube (Beckmann, 355654) and spun for 1 hour at 100.000 g at 4° C. (33.500 rpm in Ti50.2, precooled). The supernatant was transferred again to a fresh 50 ml falcon tube, the protein concentration was determined by a Bradford assay (BioRad) and samples containing 50 mg of protein per aliquot were prepared. The samples were immediately used for experiments or frozen in liquid nitrogen and stored frozen at −80° C.
(§7) Jurkat cell lysate (approximately 50 mg protein per plate) was thawed in a water bath at room temperature and then kept on ice. To the thawed cell lysate 1×DP 0.8% NP40 buffer containing protease inhibitors (1 tablet for 25 ml buffer; EDTA-free protease inhibitor cocktail; Roche Diagnostics 1873580) was added in order to reach a final protein concentration of 5 mg/ml total protein. The diluted cell lysate was stored on ice. […]

PI3K delta (PI3Kd) = target: T2, PI3K delta (PI3Kd) (Homo sapiens, UniProt O00329); assay: kinobeads assay, PI3K delta; assay type: binding; details: Jurkat cell lysate, read-out: Inhibition values (IC50) PI3Kd
T2 construct: Jurkat cells were homogenized in a Potter S homogenizer in lysis buffer; endogenous in cells; host or cells: Jurkat, clone E6-1 (ATCC TIB-152) lysate
T2 sequence (O00329 whole entry): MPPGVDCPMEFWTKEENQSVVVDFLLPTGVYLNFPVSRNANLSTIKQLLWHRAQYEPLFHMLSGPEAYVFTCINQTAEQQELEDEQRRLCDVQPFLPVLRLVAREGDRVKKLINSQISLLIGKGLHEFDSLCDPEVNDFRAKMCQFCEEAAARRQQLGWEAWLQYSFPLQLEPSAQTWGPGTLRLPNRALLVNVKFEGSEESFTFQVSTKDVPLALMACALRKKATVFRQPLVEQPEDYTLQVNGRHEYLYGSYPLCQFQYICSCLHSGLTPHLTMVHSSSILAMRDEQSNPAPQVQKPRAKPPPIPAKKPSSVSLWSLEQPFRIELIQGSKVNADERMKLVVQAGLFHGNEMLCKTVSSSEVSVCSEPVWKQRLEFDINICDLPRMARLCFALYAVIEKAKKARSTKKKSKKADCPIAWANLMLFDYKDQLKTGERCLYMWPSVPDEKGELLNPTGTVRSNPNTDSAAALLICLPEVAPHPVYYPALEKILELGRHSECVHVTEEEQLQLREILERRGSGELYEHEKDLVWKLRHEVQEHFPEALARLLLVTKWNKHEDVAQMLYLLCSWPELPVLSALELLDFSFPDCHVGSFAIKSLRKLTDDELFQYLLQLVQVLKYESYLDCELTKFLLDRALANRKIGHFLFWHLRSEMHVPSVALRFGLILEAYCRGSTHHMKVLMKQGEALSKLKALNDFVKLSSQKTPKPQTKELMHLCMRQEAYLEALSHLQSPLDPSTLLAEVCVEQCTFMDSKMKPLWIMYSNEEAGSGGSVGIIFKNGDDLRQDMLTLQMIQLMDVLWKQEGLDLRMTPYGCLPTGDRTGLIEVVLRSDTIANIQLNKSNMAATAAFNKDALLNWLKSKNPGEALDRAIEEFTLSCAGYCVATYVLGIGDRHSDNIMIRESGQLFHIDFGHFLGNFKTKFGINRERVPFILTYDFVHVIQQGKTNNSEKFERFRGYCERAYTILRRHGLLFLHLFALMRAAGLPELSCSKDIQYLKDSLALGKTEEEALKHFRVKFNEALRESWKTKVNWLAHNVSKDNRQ
T2 sequence (P27986 whole entry partner): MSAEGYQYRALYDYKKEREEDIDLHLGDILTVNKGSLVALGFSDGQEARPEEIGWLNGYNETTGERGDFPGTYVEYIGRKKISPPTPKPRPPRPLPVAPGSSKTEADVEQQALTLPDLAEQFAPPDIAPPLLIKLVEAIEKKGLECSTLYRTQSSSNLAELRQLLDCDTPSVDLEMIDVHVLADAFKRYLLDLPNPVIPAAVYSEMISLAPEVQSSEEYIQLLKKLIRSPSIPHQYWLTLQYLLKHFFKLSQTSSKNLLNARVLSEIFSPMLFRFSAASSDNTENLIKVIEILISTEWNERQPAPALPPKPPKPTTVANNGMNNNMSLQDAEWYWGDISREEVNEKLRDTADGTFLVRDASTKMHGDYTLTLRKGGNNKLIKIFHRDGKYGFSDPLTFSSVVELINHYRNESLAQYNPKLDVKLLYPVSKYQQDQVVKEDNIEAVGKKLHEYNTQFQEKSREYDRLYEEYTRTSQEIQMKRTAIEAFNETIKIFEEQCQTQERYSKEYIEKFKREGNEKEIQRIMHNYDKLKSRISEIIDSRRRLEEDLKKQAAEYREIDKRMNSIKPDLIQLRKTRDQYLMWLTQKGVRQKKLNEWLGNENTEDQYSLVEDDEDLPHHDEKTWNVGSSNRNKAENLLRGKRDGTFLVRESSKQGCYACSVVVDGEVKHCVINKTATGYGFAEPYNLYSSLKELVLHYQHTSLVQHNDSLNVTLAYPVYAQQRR
Method: as §1, §2, §3, §4, §5, §6, §7

[2] = tested on: S6RP serine-240/244 phosphorylation; assay: In vitro phospho-S6 cellular assay (HEK293T/17); assay type: cell-based; details: Homo sapiens; HEK293T/17 cells, 2 hours, pS6RP Ser240/244; read-out: Inhibition values (IC50) pS6
Source text: Activation of mTOR signaling results in phosphorylation of several downstream targets. In cells, mTOR exists in two different protein complexes. The mTOR Complex-1 (mTORC1) phosphorylates and activates S6 Kinase 1 (S6K1) and S6 Kinase 2 (S6K2) (also known as p70S6K) which then phosphorylate S6 Ribosomal Protein (S6RP) (also known as RPS6)3. S6RP is phosphorylated on serine 235, senile 236, serine 240 and serine 244 by both pS6K1 and pS6K2. The mTOR Complex-2 (mTORC2) phosphorylates AKT on serine 473 which activates the AKT signaling pathway.
The assay measures a test compound's inhibition of S6RP serine-240/244 phosphorylation and inhibition of Akt serine-473 phosphorylation in human embryonic kidney derived HEK293T/17 cells (ATCC CRL-11268).
The HEK293T/17 cell line is maintained in DMEM media (Invitrogen catalogue number 41965-039) supplemented with 10% FCS at 37° C. in a 5% CO2 humidified incubator. Cells are seeded in 96-well plates at 40,000 cells/well (pS6RP S240/244 assay) or 80,000 cells/well (pAkt 5473 assay) in 90 μl growth media (DMEM, 2% FCS). Plates are incubated for 1 hour in a humidified incubator to allow the cells to adhere. Cells are treated with 8 concentrations of test compounds or DMSO alone for controls (final DMSO concentration 0.1%) and incubated at 37° C. for 2 hours. Then 20 μl of 5× concentrated lysis buffer (750 mM NaCl, 100 mM Tris pH7.4, 5 mM ADTA, 5 mM EGTA, 5% Triton X-100) is added, plates are sealed and incubated for 15 minutes at 4° C. with gentle shaking After cell lysis, 25 μl cell lysate is transferred to a MesoScale plate coated with an antibody to pS6RP Ser240/244 (MesoScale Discovery K150DGD-3) or an antibody to pAkt Ser 473 (MesoScale Discovery K151DGD-3). Plates have been blocked before by incubation with 150 μl MesoScale Discovery Blocking Solution-A for 1 hour at room temperature followed by washing with 150 μl 1×Tris wash buffer per well. After the transfer of the cell lysate to the MSD plate, the pS6RP (or pAkt) protein is captured on the coated antibody by incubation at room temperature for 1 hour with gentle shaking. After the capture step the plate is washed three times with 150 μl of 1× Tris wash buffer per well. Then 25 μl detection antibody conjugated with a Sulfo-Tag is added and incubated for 1 hour at room temperature with gentle shaking. Subsequently the antibody solution is removed and the plate is washed 3 times with 150 μl 1×Tris wash buffer per well and 150 μl Read buffer is added. The plates are analysed on a MSD 2400 Plate Reader (MesoScale Discovery). Data analysis is performed using nonlinear regression for a sigmoidal dose-response with a variable slope.

PI3K gamma (PI3Kg) = target: T3, PI3K gamma (PI3Kg) (Homo sapiens, UniProt P48736); assay: kinobeads assay, PI3K gamma; assay type: binding; details: Jurkat cell lysate, read-out: Inhibition values (IC50) PI3Kg
T3 construct: Jurkat cells were homogenized in a Potter S homogenizer in lysis buffer; endogenous in cells; host or cells: Jurkat, clone E6-1 (ATCC TIB-152) lysate
T3 sequence (P48736 whole entry): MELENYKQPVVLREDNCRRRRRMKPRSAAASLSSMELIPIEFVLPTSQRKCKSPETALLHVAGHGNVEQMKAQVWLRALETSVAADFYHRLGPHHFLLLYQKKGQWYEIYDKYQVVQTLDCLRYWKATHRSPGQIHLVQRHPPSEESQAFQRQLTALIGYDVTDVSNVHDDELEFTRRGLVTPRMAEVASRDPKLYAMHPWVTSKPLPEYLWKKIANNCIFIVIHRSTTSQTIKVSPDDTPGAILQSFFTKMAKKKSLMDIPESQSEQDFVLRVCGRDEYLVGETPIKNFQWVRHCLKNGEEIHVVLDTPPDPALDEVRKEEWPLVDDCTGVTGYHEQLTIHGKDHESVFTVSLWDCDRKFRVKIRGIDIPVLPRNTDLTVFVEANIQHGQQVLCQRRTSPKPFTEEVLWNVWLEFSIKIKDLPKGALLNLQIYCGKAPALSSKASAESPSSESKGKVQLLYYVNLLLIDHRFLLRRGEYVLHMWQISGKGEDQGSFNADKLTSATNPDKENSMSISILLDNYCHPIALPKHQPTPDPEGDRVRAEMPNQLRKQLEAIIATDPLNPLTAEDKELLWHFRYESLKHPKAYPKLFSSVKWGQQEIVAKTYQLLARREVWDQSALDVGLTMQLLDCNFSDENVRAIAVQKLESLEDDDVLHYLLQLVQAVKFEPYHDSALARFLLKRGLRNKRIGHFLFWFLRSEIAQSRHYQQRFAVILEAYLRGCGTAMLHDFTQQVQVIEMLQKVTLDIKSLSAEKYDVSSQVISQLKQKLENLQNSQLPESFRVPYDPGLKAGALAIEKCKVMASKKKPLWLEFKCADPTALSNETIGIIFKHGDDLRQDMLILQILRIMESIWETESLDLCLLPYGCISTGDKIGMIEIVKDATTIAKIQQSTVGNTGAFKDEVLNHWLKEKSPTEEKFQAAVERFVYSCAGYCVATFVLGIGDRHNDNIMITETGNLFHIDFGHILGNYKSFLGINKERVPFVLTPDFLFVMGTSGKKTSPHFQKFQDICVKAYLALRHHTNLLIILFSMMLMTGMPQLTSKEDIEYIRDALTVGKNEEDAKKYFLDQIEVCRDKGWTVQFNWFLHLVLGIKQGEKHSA
Method: as §1, §2, §3, §4, §5, §6, §7

mTOR = target: T4, mTOR (Homo sapiens, UniProt P42345); assay: mTOR kinobeads assay (Jurkat cell lysate, dot blot detection); assay type: binding; details: read-out: Inhibition values (IC50) mTor
T4 construct: Jurkat cells were homogenized in a Potter S homogenizer in lysis buffer; endogenous in cells; host or cells: Jurkat, clone E6-1 (ATCC TIB-152) lysate
Method: as §1, §2, §3, §4, §5, §6, §7

PI3K alpha (PI3Kα) = target: T5, PI3K alpha (PI3Kα) (Homo sapiens, UniProt P42336); assay: kinobeads assay, PI3K alpha; assay type: binding; details: Jurkat cell lysate, read-out: Inhibition values (IC50) PI3Ka
T5 construct: Jurkat cells were homogenized in a Potter S homogenizer in lysis buffer; endogenous in cells; host or cells: Jurkat, clone E6-1 (ATCC TIB-152) lysate
T5 sequence (P42336 whole entry): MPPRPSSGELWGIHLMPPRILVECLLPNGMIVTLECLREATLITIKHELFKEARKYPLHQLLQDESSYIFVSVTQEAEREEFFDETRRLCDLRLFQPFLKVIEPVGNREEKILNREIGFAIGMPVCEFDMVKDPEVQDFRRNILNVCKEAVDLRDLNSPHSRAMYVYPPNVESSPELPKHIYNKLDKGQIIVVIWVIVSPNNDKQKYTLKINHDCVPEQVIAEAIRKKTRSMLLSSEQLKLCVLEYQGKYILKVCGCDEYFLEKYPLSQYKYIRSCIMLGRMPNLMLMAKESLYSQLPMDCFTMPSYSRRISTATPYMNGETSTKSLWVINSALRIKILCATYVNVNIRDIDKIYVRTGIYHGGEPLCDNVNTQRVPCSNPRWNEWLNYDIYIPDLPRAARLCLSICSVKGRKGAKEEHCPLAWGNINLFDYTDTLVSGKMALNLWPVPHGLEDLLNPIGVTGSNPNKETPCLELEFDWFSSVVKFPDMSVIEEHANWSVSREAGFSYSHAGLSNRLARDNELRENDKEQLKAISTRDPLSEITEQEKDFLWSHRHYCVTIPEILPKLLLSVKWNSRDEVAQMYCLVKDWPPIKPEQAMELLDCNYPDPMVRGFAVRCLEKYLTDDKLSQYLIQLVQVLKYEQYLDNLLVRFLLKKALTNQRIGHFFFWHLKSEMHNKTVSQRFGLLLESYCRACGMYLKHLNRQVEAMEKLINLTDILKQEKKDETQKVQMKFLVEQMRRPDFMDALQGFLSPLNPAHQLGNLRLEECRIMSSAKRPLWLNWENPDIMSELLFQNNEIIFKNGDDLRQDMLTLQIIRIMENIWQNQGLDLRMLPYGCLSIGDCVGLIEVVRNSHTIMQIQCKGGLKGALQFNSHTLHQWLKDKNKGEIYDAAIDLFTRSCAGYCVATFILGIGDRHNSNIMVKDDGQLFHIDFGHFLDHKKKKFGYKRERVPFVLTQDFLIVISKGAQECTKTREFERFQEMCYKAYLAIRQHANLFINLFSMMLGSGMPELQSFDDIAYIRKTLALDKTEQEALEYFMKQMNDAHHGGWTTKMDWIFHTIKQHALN
T5 sequence (P27986 whole entry partner): as the sequence (P27986 whole entry partner) above
Method: as §1, §2, §3, §4, §5, §6, §7

PI3K beta (PI3Kb) = target: T6, PI3K beta (PI3Kb) (Homo sapiens, UniProt P42338); assay: kinobeads assay, PI3K beta; assay type: binding; details: Jurkat cell lysate, read-out: Inhibition values (IC50) PI3Kb
T6 construct: Jurkat cells were homogenized in a Potter S homogenizer in lysis buffer; endogenous in cells; host or cells: Jurkat, clone E6-1 (ATCC TIB-152) lysate
T6 sequence (P42338 whole entry): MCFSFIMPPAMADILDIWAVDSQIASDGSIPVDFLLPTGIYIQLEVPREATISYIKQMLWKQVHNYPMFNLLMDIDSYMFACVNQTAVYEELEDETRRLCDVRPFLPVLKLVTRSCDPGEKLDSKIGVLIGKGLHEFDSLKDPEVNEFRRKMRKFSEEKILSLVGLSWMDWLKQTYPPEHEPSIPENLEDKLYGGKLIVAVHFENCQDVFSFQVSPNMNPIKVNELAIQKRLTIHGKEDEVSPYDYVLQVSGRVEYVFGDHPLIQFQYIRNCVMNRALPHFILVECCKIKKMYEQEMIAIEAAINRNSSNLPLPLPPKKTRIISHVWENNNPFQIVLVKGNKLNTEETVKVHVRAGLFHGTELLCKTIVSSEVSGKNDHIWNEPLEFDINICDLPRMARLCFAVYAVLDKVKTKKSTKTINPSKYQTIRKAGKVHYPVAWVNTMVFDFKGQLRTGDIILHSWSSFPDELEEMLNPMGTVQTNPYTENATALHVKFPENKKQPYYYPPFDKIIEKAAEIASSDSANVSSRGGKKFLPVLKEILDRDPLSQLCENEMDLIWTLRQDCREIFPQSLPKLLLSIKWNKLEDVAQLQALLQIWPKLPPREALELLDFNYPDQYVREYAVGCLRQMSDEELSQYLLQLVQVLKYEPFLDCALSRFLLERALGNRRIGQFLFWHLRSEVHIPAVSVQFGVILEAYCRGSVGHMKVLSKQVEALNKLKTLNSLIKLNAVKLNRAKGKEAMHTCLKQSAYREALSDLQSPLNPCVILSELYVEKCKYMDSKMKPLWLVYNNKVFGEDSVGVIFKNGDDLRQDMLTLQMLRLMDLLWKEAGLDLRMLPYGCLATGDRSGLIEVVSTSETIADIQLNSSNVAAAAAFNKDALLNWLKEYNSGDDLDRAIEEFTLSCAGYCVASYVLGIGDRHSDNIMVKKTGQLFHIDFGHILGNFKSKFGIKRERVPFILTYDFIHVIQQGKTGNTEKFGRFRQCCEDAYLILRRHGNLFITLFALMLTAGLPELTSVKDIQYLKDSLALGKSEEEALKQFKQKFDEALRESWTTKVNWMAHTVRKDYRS
T6 sequence (P27986 whole entry partner): as the sequence (P27986 whole entry partner) above
Method: as §1, §2, §3, §4, §5, §6, §7

Row | Compound | IC50 [1] | IC50 (PI3K delta (PI3Kd)) | IC50 [2] | IC50 (PI3K gamma (PI3Kg)) | IC50 (mTOR) | IC50 (PI3K alpha (PI3Kα)) | IC50 (PI3K beta (PI3Kb))
1 | C[C@H]1COCCN1c1nc(-c2ccc(NC(=O)NC3CCC3)cc2)nc(-c2ccccc2S(C)(=O)=O)n1 [Example 27, (S)-1-cyclobutyl-3-(4-(4-(3-methylmorpholino)-6-(2-(methylsulfonyl)phenyl)-1,3,5-triazin-2-yl)phenyl)urea] | > 10 µM | > 10 µM | < 0.1 µM | > 10 µM | 0.1 to 1 µM | > 10 µM | > 10 µM
2 | C[C@H]1COCCN1c1nc(-c2ccc(NC(=O)NC3CC3(F)F)cc2)nc(-c2ccccc2S(C)(=O)=O)n1 (stereo partly drawn) [Example 29, 1-(2,2-difluorocyclopropyl)-3-(4-(4-((S)-3-methylmorpholino)-6-(2-(methylsulfonyl)phenyl)-1,3,5-triazin-2-yl)phenyl)urea] | > 10 µM | > 10 µM | < 0.1 µM | > 10 µM | 0.1 to 1 µM | > 10 µM | > 10 µM
3 | C[C@H]1COCCN1c1nc(-c2ccc(NC(=O)Nc3cccnc3)cc2)nc(-c2ccccc2S(C)(=O)=O)n1 [Example 3, (S)-1-(4-(4-(3-methylmorpholino)-6-(2-(methylsulfonyl)phenyl)-1,3,5-triazin-2-yl)phenyl)-3-(pyridin-3-yl)urea] | > 10 µM | > 10 µM | < 0.1 µM | > 10 µM | 0.1 to 1 µM | > 10 µM | > 10 µM
4 | C[C@H]1COCCN1c1nc(-c2ccc(NC(=O)NC3CC3)cc2)nc(-c2ccccc2S(=O)(=O)N2CCCC2)n1 [Example 26, (S)-1-cyclopropyl-3-(4-(4-(3-methylmorpholino)-6-(2-(pyrrolidin-1-ylsulfonyl)phenyl)-1,3,5-triazin-2-yl)phenyl)urea] | > 10 µM | > 10 µM | < 0.1 µM | > 10 µM | 0.1 to 1 µM | > 10 µM | > 10 µM
5 | C[C@H]1COCCN1c1nc(-c2ccc(NC(=O)NCC(O)C(F)(F)F)cc2)nc(-c2ccccc2S(C)(=O)=O)n1 (stereo partly drawn) [Example 33, 1-(4-(4-((S)-3-methylmorpholino)-6-(2-(methylsulfonyl)phenyl)-1,3,5-triazin-2-yl)phenyl)-3-(3,3,3-trifluoro-2-hydroxypropyl)urea] | > 10 µM | > 10 µM | 0.1 to 1 µM | > 10 µM | 0.1 to 1 µM | > 10 µM | > 10 µM
6 | CCC1COCCN1c1nc(-c2ccc(NC(=O)NC3CC3)cc2)nc(-c2ccccc2S(C)(=O)=O)n1 (centres unmarked) [Example 36, 1-cyclopropyl-3-(4-(4-(3-ethylmorpholino)-6-(2-(methylsulfonyl)phenyl)-1,3,5-triazin-2-yl)phenyl)urea] | > 10 µM | > 10 µM | < 0.1 µM | > 10 µM | 0.1 to 1 µM | > 10 µM | > 10 µM
7 | CS(=O)(=O)c1ccccc1-c1nc(-c2ccc(NC(=O)NC3CC3)cc2)nc(N2CCOCC2)n1 [Example 12, 1-cyclopropyl-3-(4-(4-(2-(methylsulfonyl)phenyl)-6-morpholino-1,3,5-triazin-2-yl)phenyl)urea] | > 10 µM | > 10 µM | 0.1 to 1 µM | > 10 µM | 0.1 to 1 µM | > 10 µM | > 10 µM
8 | CC1(C)COCCN1c1nc(-c2ccc(NC(=O)NC3CC3)cc2)nc(-c2ccccc2S(C)(=O)=O)n1 [Example 22, 1-cyclopropyl-3-(4-(4-(3,3-dimethylmorpholino)-6-(2-(methylsulfonyl)phenyl)-1,3,5-triazin-2-yl)phenyl)urea] | > 10 µM | > 10 µM | < 0.1 µM | > 10 µM | 0.1 to 1 µM | > 10 µM | > 10 µM
9 | C[C@H]1COCCN1c1nc(-c2ccc(NC(=O)NCCC(F)(F)F)cc2)nc(-c2ccccc2S(C)(=O)=O)n1 [Example 31, (S)-1-(4-(4-(3-methylmorpholino)-6-(2-(methylsulfonyl)phenyl)-1,3,5-triazin-2-yl)phenyl)-3-(3,3,3-trifluoropropyl)urea] | > 10 µM | > 10 µM |  | > 10 µM | 1 to 10 µM | > 10 µM | > 10 µM
10 | C[C@H]1COCCN1c1nc(-c2ccc(NC(=O)NCC(C)(C)C)cc2)nc(-c2ccccc2S(C)(=O)=O)n1 [Example 30, (S)-1-(4-(4-(3-methylmorpholino)-6-(2-(methylsulfonyl)phenyl)-1,3,5-triazin-2-yl)phenyl)-3-neopentylurea] | > 10 µM | > 10 µM |  | > 10 µM | 1 to 10 µM | > 10 µM | > 10 µM
